# From patent US9895352B2, “Indolinone compounds and uses thereof” (Oncternal Therapeutics, Inc., priority 2014, dated 2018)
# Read-outs that look alike come from different tables or passages of the source.
# Columns and labels:
# [1] = Half-life in dog hepatocytes; assay type: in vitro ADME; details: for half-life: read-out: Half life of cmpds
# Protocol: (§1) In another study, metabolism of compounds in hepatocytes from various species was examined. Hepatocytes were contacted with a compound, and the half-life of the compound was determined.
# [2] = Half-life in rat hepatocytes; assay type: in vitro ADME; details: for half-life: read-out: Half life of cmpds
# Protocol: as §1
# [3] = Half-life in human hepatocytes; assay type: in vitro ADME; details: read-out: Half life of cmpds
# Protocol: as §1
# [4] = Half-life in mouse hepatocytes; assay type: in vitro ADME; details: read-out: Half life of cmpds
# Protocol: as §1
# [5] = Metabolic stability, half-life and clearance in human liver microsomes; assay type: in vitro ADME; details: for CLhep: hepatic clearance where blood flow = 20 mL/min/kg
# Protocol: (§2) Half-life and clearance rates for certain compounds were assayed with human liver microsomes and human hepatocytes. […] At each time point (0, 5, 15, 30, 60, 90 min) the reactions were stopped, vortexed and centrifuged. Supernatents were frozen until LC/MS/MS analysis. The results for human liver microsomes and human hepactocytes are summarized in TABLE 9, and TABLE 10, respectively. Certain compounds were assayed with human liver microsomes (HLM) and human hepatocytes, and metabolites were detected. Briefly, metabolic stability was tested at one TA concentration (e.g., 1 μM) in duplicate. […] Incubations were saved and used for metabolite identification using LC/MS/MS. […] The slope of the linear regression from log percentage remaining versus incubation time relationships (−k) was determined by linear regression fitting. From the individual log percentage remaining time profiles, the mean half-life and intrinsic clearance were reported. UHPLC-HRMS or UHPLC-MS/MS experiment was performed on the authentic test articles to check for possible common fragment ions. […] The metabolites were summarized based on their mass spectrometry peak areas.
# [6] = Metabolic stability, half-life and clearance in human hepatocytes; assay type: in vitro ADME; details: for % remaining / half-life: Human hepatocytes; for CLhep: human hepatocytes, hepatic clearance where blood flow = 20 mL/min/kg
# Protocol: as §2
# [7] = tested on: SKES cells (Ewing Sarcoma cell line); experiment: CCK-8 tetrazolium tumor cell growth inhibition, SKES; assay type: cell-based; details: Homo sapiens, 72 h, SKES cells, 3 days with compound, CCK-8 (TABLE 3)
# Protocol: A modified tetrazolium salt assay using the CCK-8 kit (Sigma-Aldrich; St Louis, Mo.) was used to measure the inhibition of human tumor cell growth. Tumor cells (5000-7500 per well) were added to 96 well plates and allowed to attach for 4-5 hours. Compounds were serially diluted and added in triplicate at a concentration of 0.02 to 5 μM. DMSO was included as a vehicle control. Cells were incubated in the presence of compound for 3 days. After incubation CCK-8 reagent was added to each well and incubated for 2-4 hours. Viable cells were quantitated spectrophotometrically at a wavelength of 450 nm. Percent viability of each sample was calculated from the A450 values as follows: % viability=(A450 nm sample/A450 nm DMSO-treated cells×100). […] IC50 activities of particular compounds were determined using SKES cells (Ewing Sarcoma cell line).
# [8] = not given; remark: listed apart in the source
# [9] = not given; remark: listed apart in the source
# in vitro [10] = details: mouse
# [11] = not given; remark: listed apart in the source
# in vitro [12] = details: rat, liver microsomes
# [13] = human liver microsome, no cofactor, 60 min
smiles,measurement,setting,value
"O=c1ccc2ccc(O)cc2o1 [7-Hydroxycoumarin, reference compound]",half-life,[1],9.38 min
same,Half life of cmpds,[2],12.41 min
same,half-life,[3],20.8 min
same,half-life,[4],15.8 min
"COc1ccc(C(=O)CC2(O)C(=O)Nc3c(Cl)ccc(Cl)c32)cc1 (racemic) [Cmpd 1, 4,7-Dichloro-3-hydroxy-3-[2-(4-methoxyphenyl-2-oxoethyl)]-1,3-dihydroindol-2-one]",half-life,[1],16.7 min
same,half-life,[2],14.2 min
same,half-life,[3],45.5 min
same,% remaining,[5],5%
same,half-life,[5],10.3 min
same,CLhep,[5],17.28 mL/min/kg
same,half-life,[4],30.9 min
same,% remaining,[6],48%
same,half-life,[6],226 min
same,CLhep,[6],8.7 mL/min/kg
same,IC50,[7],< 5 µM
"O=C(O)Cc1ccccc1Nc1c(Cl)cccc1Cl [Diclofenac, reference compound]",Remaining (NCF = 60 min),"human, microsomes, 1 h",77.8%
same,Remaining (NCF = 60 min),"[8]; mouse, microsomes, 1 h",88.1%
same,Remaining (NCF = 60 min),"[9]; rat, microsomes, 1 h",94.1%
same,half-life,in vitro [10]; microsomes,39.2 min
same,Remaining (NCF = 60 min),"[11]; dog, microsomes, 1 h",89.6%
"CCOc1ccc2ccc(=O)oc2c1 [7-Ethoxycoumarin, reference compound]",Half life of cmpds,[1],9.14 min
same,half-life,[2],38.2 min
same,half-life,[3],45.3 min
same,half-life,[4],37.9 min
"C[C@]12CC[C@H]3[C@@H](CCC4=CC(=O)CC[C@@]43C)[C@@H]1CC[C@@H]2O [Testosterone, reference compound]",Remaining (NCF = 60 min),[13],88.1%
same,Remaining (NCF = 60 min),"[8]; mouse liver microsome, no cofactor, 60 min",83.6%
same,Remaining (NCF = 60 min),"[9]; rat liver microsome, no cofactor, 60 min",87.3%
same,half-life,in vitro [10]; microsomes,3.3 min
same,Remaining (NCF = 60 min),"[11]; dog liver microsome, no cofactor, 60 min",91.0%
"CNc1ccc(C(=O)CC2(O)C(=O)Nc3c(Cl)ccc(Cl)c32)cc1 (racemic) [Cmpd 7, 4,7-dichloro-3-hydroxy-3-[2-[4-(methylamino)phenyl]-2-oxoethyl]-1H-indol-2-one]",% remaining,[5],49%
same,half-life,[5],> 45 min
same,CLhep,[5],~11.54 mL/min/kg
same,% remaining,[6],100%
same,half-life,[6],> 240 min
same,CLhep,[6],<8.7 mL/min/kg
"O=C(CC1(O)C(=O)Nc2c(Cl)ccc(Cl)c21)c1ccc(C2CC2)c(F)c1 (single isomer, unassigned) [Cmpd 37, 4,7-Dichloro-3-(2-(4-cyclopropyl-3-fluorophenyl)-2-oxoethyl)-3-hydroxyindolin-2-one]",Remaining (NCF = 60 min),[13],103.4%
same,half-life,in vitro [12],3.5 min
same,half-life,in vitro [10]; liver microsomes,20.7 min
"O=C(CC1(O)C(=O)Nc2c(Cl)ccc(Cl)c21)c1ccc(C2CC2)cc1F (single isomer, unassigned) [Cmpd 39, 4,7-Dichloro-3-(2-(4-cyclopropyl-2-fluorophenyl)-2-oxoethyl)-3-hydroxyindolin-2-one]",Remaining (NCF = 60 min),[13],100.0%
same,half-life,in vitro [12],3 min
